pIC50: −log10 of the molar value.
Columns and labels:
[1] = target: T1, TNKS2 (Homo sapiens, UniProt Q9H2K2); assay: Modified TNKS2 Assay 2 (auto-parsylation, [3H]-NAD+ SPA); format: biochemical; details: 6 nM TNKS2, 96 well
T1 sequence (Q9H2K2 1-1166): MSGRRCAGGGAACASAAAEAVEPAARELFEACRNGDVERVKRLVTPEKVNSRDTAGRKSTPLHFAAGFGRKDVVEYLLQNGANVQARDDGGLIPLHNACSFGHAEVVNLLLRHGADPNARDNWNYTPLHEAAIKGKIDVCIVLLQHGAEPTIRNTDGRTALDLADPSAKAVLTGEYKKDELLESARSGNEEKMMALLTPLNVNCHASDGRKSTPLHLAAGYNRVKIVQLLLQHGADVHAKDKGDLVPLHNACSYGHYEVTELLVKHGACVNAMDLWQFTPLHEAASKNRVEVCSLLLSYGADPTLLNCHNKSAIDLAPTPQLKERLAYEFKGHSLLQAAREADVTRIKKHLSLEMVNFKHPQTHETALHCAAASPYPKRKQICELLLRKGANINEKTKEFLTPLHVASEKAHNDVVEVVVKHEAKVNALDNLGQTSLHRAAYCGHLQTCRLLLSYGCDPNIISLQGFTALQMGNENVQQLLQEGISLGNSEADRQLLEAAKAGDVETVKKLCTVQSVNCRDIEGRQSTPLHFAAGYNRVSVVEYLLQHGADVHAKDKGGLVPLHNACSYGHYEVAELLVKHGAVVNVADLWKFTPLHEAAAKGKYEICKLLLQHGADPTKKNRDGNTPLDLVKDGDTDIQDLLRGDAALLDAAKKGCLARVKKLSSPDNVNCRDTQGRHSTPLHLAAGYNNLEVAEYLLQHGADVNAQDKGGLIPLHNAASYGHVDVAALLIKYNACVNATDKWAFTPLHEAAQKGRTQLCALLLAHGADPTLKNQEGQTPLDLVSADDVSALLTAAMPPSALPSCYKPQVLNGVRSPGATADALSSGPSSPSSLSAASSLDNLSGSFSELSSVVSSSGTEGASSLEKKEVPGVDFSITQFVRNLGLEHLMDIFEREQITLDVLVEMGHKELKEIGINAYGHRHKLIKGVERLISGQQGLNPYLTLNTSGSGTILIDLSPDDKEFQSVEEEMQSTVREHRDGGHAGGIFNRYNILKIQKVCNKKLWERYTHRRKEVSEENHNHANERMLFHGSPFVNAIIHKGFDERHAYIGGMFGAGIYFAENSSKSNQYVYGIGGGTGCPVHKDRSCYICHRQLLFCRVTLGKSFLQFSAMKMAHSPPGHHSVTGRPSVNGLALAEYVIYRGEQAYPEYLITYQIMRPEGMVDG
Description: The potency of selected compounds according to the invention was assessed applying an modified in vitro inhibition assay. Here, the TNKS2 catalyzed NAD^+-dependent ribosylation of the enzyme itself (auto-parsylation) was detected using [^3H]-NAD^+ as substrate and applying the scintillation proximity assay (SPA) method to detect tritium-labeled, parsylated TNKS2. The intensity of the readout signal is proportional to the incorporated [^3H]-NAD^+. Inhibition of TNKS2 leads to a decreased incorporation of [^3H]-NAD^+ and consequently to a lower readout signal intensity. The concentration of a test compound which inhibits the enzyme activity by 50% (corresponds to half of the normed readout signal intensity) is reported as IC50.
The assay was conducted in a 96 well MTP format with the identical TNKS2 enzyme sample and NAD^+ sample as in the histone ribosylation assay with the following modifications: TNKS2 enzyme sample was diluted with a modified assay buffer (50 mM MES pH 7.0, 1 mM DTT, 0.01% Triton X-100) to a final concentration of 6 nM TNKS2 and 10×NAD^+ solution was diluted with the modified assay buffer (s. above) to a final 0.445×NAD^+ solution doped with 100 Bq/ul [^3H]-NAD^+ [Catalog #NET443H050UC, Perkin Elmer, Waltham, Mass., USA]. Substrate solution (10 ul) was incubated with different test compound concentrations (2.5 ul in 10% DMSO in modified assay buffer) or control (2.5 ul 10% DMSO in modified assay buffer only) and enzyme (10 ul) over night at room temperature. Incorporated tritium was measured after addition of 50 ul SPA beads (1 mg/ml) [Catalog #RPNQ0095 20 mg/ml, Perkin Elmer, Waltham, Mass., USA; diluted 1:10 with Dulbecco's phosphate buffered saline, PBS Catalog #D8537, Sigma-Aldrich, Steinheim, Germany] and detection of the photon emission with a beta count plate reader [Wallac MicroBeta®, Perkin Elmer, Waltham, Mass., USA].

[2] = test system: wildtype Wnt signaling cascade; assay: HEK293 TOP Assay (Super TopFlash luciferase reporter, Wnt-3a stimulated); format: cell-based; details: Homo sapiens, HEK293, 16 h, HEK293 TOP reporter cell line, Wnt-3a at EC50, 16 hours incubation, compound dilution series 50 μM to 15 nM
How it was run: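 Compounds (50 μM down to 15 nM, 3.16-fold steps, in CAFTY buffer pH 7.4, 2 mM Ca2+, 0.01% BSA) tested in parallel on TOP and FOP HEK293 reporter lines to define selective wildtype Wnt inhibition. Pathway driven by recombinant human Wnt-3a applied at 2500–5 ng/ml in two-fold dilutions.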

[3] = test system: HEK293 FOP control reporter cell line; assay: HEK293 FOP Assay (FOP control vector luciferase reporter); format: cell-based; details: Homo sapiens; HEK293 FOP control reporter cell line, 16 hours incubation, compound dilution series 50 μM to 15 nM
Description: In a parallel approach, HEK293 cells were cotransfected with the FOP control vector and pcDNA3. The FOP vector is identical to the TOP construct, but it contains instead of functional TCF elements a randomized, non-functional sequence. For this transfection a stable transfected cell line was generated as well, based on selection with Geneticin (1 mg/ml).
In preparation of the assay, the two cell lines were plated 24 hrs before beginning the test at 10000 cells per well in a 384 micro titre plate (MTP) in 30 μl growth medium. […] The recombinant human Wnt-3a was thereby applied between 2500 and 5 ng/ml in two-fold dilution steps.
Selective inhibitory activity for small molecules on the wildtype Wnt pathway was determined after parallel incubation of both (TOP and FOP) HEK293 reporter cell lines with a compound dilution series from 50 μM to 15 nM in steps of 3.16-fold dilutions in CAFTY buffer (130 mM sodium chloride, 5 mM potassium chloride, 20 mM HEPES, 1 mM magnesium chloride, 5 mM sodium bicarbonate, pH 7.4) containing 2 mM Ca^2+ and 0.01% BSA.
The compounds were thereby serially prediluted in 100% DMSO and thereafter 50 fold into the CAFTY compound dilution buffer (described above).

SMILES	pIC50 [1]	pIC50 [2]	pIC50 [3]
CCNC(=O)c1nc[nH]c1C(=O)Nc1ccc(NC(=O)c2ccc(OC(F)F)cc2F)cc1 [Example 258, N^5-(4-{[4-(difluoromethoxy)-2-fluorobenzoyl]amino}phenyl)-N^4-ethyl-1H-imidazole-4,5-dicarboxamide]	< 5.00	5.35	
CNC(=O)c1nc[nH]c1C(=O)Nc1ccc(NC(=O)c2ccc(F)cc2)c(F)c1 [Example 76, N^5-{3-fluoro-4-[(4-fluorobenzoyl)amino]phenyl}-N^4-methyl-1H-imidazole-4,5-dicarboxamide]		4.92	5.13
CNC(=O)c1nc[nH]c1C(=O)Nc1ccc(NC(=O)c2cccc(F)c2F)cc1 [Example 319, N^5-{4-[(2,3-difluorobenzoyl)amino]phenyl}-N^4-methyl-1H-imidazole-4,5-dicarboxamide]		5.05	4.43
O=C(Nc1ccc(NC(=O)c2nc[nH]c2C(=O)NCCN2CCCC(O)C2)cc1)c1ccccc1Cl (stereo not drawn) [Example 152, N^4-{4-[(2-chlorobenzoyl)amino]phenyl}-N^5-{2-[3-hydroxypiperidin-1-yl]ethyl}-1H-imidazole-4,5-dicarboxamide]		6.34	4.52
CNC(=O)c1nc[nH]c1C(=O)Nc1ccc(NC(=O)c2ccccc2C(F)(F)F)cc1 [Example 58, N^4-methyl-N^5-(4-{[2-(trifluoromethyl)benzoyl]amino}phenyl)-1H-imidazole-4,5-dicarboxamide]		5.47	4.54
CN1CCN(CC(C)(C)NC(=O)c2[nH]cnc2C(=O)Nc2ccc(NC(=O)c3ccccc3Cl)cc2)CC1 [Example 203, N^4-{4-[(2-chlorobenzoyl)amino]phenyl}-N^5-[2-methyl-1-(4-methylpiperazin-1-yl)propan-2-yl]-1H-imidazole-4,5-dicarboxamide]		5.52	4.55
O=C(Nc1ccc(NC(=O)c2nc[nH]c2C(=O)NCCCCN2CCCCC2)cc1)c1ccc(F)cc1 [Example 201, N^4-{4-[(4-fluorobenzoyl)amino]phenyl}-N^5-[4-(piperidin-1-yl)butyl]-1H-imidazole-4,5-dicarboxamide]		5.35	7.52
CC1CCCN(CCNC(=O)c2[nH]cnc2C(=O)Nc2ccc(NC(=O)c3ccc(F)cc3)cc2)C1 (stereo not drawn) [Example 211, N^4-{4-[(4-fluorobenzoyl)amino]phenyl}-N^5-[2-(3-methylpiperidin-1-yl)ethyl]-1H-imidazole-4,5-dicarboxamide]		6.11	4.62
COc1cc(NC(=O)c2[nH]cnc2C(=O)NCCN2CCCCC2)ccc1NC(=O)c1ccc(F)cc1 [Example 105, N^5-{4-[(4-fluorobenzoyl)amino]-3-methoxyphenyl}-N^4-[2-(piperidin-1-yl)ethyl]-1H-imidazole-4,5-dicarboxamide]		5.78	4.54
CN1CCN(C(C)(C)CNC(=O)c2[nH]cnc2C(=O)Nc2ccc(NC(=O)c3ccccc3Cl)cc2)CC1 [Example 202, N^4-{4-[(2-chlorobenzoyl)amino]phenyl}-N^5-[2-methyl-2-(4-methylpiperazin-1-yl)propyl]-1H-imidazole-4,5-dicarboxamide]		5.80	5.01
CC(C)(C)CNC(=O)c1[nH]cnc1C(=O)Nc1ccc(NC(=O)c2ccc(F)cc2)cc1 [Example 149, N^5-(2,2-dimethylpropyl)-N^4-{4-[(4-fluorobenzoyl)amino]phenyl}-1H-imidazole-4,5-dicarboxamide]		5.28	4.66
CC(CNC(=O)c1[nH]cnc1C(=O)Nc1ccc(NC(=O)c2ccc(F)cc2)cc1)N1CCCCC1 (stereo not drawn) [Example 183, N^4-{4-[(4-fluorobenzoyl)amino]phenyl}-N^5-[2-(piperidin-1-yl)propyl]-1H-imidazole-4,5-dicarboxamide]		6.17	4.55
CNC(=O)c1nc[nH]c1C(=O)Nc1ccc(NC(=O)c2cc(Cl)cc(Cl)c2)cc1 [Example 327, N^5-{4-[(3,5-dichlorobenzoyl)amino]phenyl}-N^4-methyl-1H-imidazole-4,5-dicarboxamide]		4.40	4.43
CN1CCN(NC(=O)c2[nH]cnc2C(=O)Nc2ccc(NC(=O)c3ccc(F)cc3Cl)cc2)CC1 [Example 177, N^4-{4-[(2-chloro-4-fluorobenzoyl)amino]phenyl}-N^5-(4-methylpiperazin-1-yl)-1H-imidazole-4,5-dicarboxamide]		6.20	4.77
CNC(=O)c1nc[nH]c1C(=O)Nc1ccc(NC(=O)c2cccc(Cl)c2)cc1 [Example 325, N^5-{4-[(3-chlorobenzoyl)amino]phenyl}-N^4-methyl-1H-imidazole-4,5-dicarboxamide]		5.31	5.00
COC(=O)c1nc[nH]c1C(=O)Nc1ccc(NC(=O)c2ccccc2Cl)c(F)c1 [Example 79, methyl-5-({4-[(2-chlorobenzoyl)amino]-3-fluorophenyl}carbamoyl)-1H-imidazole-4-carboxylate]		6.29	5.09
O=C(Nc1ccc(NC(=O)c2nc[nH]c2C(=O)NCCCN2CCC(O)CC2)cc1)c1ccc(F)cc1Cl [Example 275, N^4-{4-[(2-chloro-4-fluorobenzoyl)amino]phenyl}-N^5-[3-(4-hydroxypiperidin-1-yl)propyl]-1H-imidazole-4,5-dicarboxamide]		6.33	5.02
CN1CCN(CC(C)(C)NC(=O)c2[nH]cnc2C(=O)Nc2ccc(NC(=O)c3ccc(F)cc3Cl)cc2)CC1 [Example 194, N^4-{4-[(2-chloro-4-fluorobenzoyl)amino]phenyl}-N^5-[2-methyl-1-(4-methylpiperazin-1-yl)propan-2-yl]-1H-imidazole-4,5-dicarboxamide]		6.39	5.64
